These results are taken from PubChem BioAssay AID248 (DTP/NCI, 2004).

In the assay the test system is L1210 leukemia ip in BDF1 mice, survival T/C. Description: NCI In Vivo Anticancer Drug Screen. Data for tumor model L1210 Leukemia (intraperitoneal) in B6D2F1 (BDF1) mice. To be noted: endpoint: mean survival time, higher = longer survival. Put shortly: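 Tumor was transplanted into mice, which were then dosed with test compound or vehicle alone. Survival was recorded for each group, and the treated figure was expressed relative to the control figure.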

Where [1] appears, read: dose: 100.0 mg/kg/injection, schedule: Q01DX009 (ip), vehicle: Klucel (hydroxypropylcellulose) (HPC).
Setting [2] is: dose: 75.0 mg/kg/injection, schedule: Q01DX001 (ip), vehicle: carboxymethylcellulose (CMC).
Setting [3] is: dose: 150.0 mg/kg/injection, schedule: Q01DX001 (ip), vehicle: carboxymethylcellulose (CMC).
Where [4] appears, read: dose: 100.0 mg/kg/injection, schedule: Q04DX003 (ip), vehicle: saline with Tween-80.
The mark [5] stands for this setting: dose: 200.0 mg/kg/injection, schedule: Q04DX003 (ip), vehicle: saline with Tween-80.
Setting [6] is: dose: 400.0 mg/kg/injection, schedule: Q04DX003 (ip), vehicle: saline with Tween-80.
The mark [7] stands for this setting: dose: 20.0 mg/kg/injection, schedule: Q01DX001 (ip), vehicle: saline.
Setting [8] is: dose: 40.0 mg/kg/injection, schedule: Q01DX001 (ip), vehicle: saline.
[9] abbreviates: dose: 5.0 mg/kg/injection, schedule: Q01DX001 (ip), vehicle: saline.
[10] abbreviates: dose: 10.0 mg/kg/injection, schedule: Q01DX001 (ip), vehicle: saline.
Where [11] appears, read: dose: 80.0 mg/kg/injection, schedule: Q01DX001 (ip), vehicle: saline.
Setting [12] is: dose: 200.0 mg/kg/injection, schedule: Q01DX001 (ip), vehicle: saline.
Where [13] appears, read: dose: 25.0 mg/kg/injection, schedule: Q01DX009 (ip), vehicle: Klucel (hydroxypropylcellulose) (HPC).
The mark [14] stands for this setting: dose: 50.0 mg/kg/injection, schedule: Q01DX009 (ip), vehicle: Klucel (hydroxypropylcellulose) (HPC).
[15] abbreviates: dose: 100.0 mg/kg/injection, schedule: Q01DX009 (ip), vehicle: saline with Tween-80.
Setting [16] is: dose: 200.0 mg/kg/injection, schedule: Q01DX009 (ip), vehicle: saline with Tween-80.
Where [17] appears, read: dose: 400.0 mg/kg/injection, schedule: Q01DX009 (ip), vehicle: saline with Tween-80.

Each structure is given as a SMILES string. Values joined by “and” are separate entries in the source; they are usually repeats but may differ in a detail not shown here. Identical values can stand only once. Toxic doses and inconclusive results are not listed.

In the case of `Cn1cccc1/C=N/NC(N)=O`, the T/C runs as follows: (dose: 100.0 mg/kg/injection, schedule: Q04DX002 (ip), vehicle: Klucel (hydroxypropylcellulose) (HPC)) 104 % of control; (dose: 200.0 mg/kg/injection, schedule: Q04DX002 (ip), vehicle: Klucel (hydroxypropylcellulose) (HPC)) 104 % of control; (dose: 400.0 mg/kg/injection, schedule: Q04DX002 (ip), vehicle: Klucel (hydroxypropylcellulose) (HPC)) 98 % of control.

In the case of `O=C(CC1=CCCCC1)c1ccccc1`, the T/C was 103 % of control under setting [1]; 100 % of control (dose: 200.0 mg/kg/injection, schedule: Q01DX009 (ip), vehicle: Klucel (hydroxypropylcellulose) (HPC)); 97 % of control (dose: 400.0 mg/kg/injection, schedule: Q01DX009 (ip), vehicle: Klucel (hydroxypropylcellulose) (HPC)).

With `CC1(C)S[C@@H]2[C@H](NC=O)C(=O)N2[C@H]1C(=O)OCc1ccccc1`, the T/C reads like this: under setting [2], 90 % of control; under setting [3], 86 % of control.

Regarding `CC(C)C(NC(=O)CCNC(=O)OCc1ccccc1)C(=O)OCc1ccccc1` (stereo unspecified), the T/C is, setting by setting: under setting [4], 93 % of control; under setting [5], 92 % of control; under setting [6], 95 % of control.

Turning to `CC[n+]1ccccc1-c1ccc(NC(=O)c2ccc(C(=O)Nc3ccc(-c4ccccn4)cc3)cc2)cc1`, the T/C reads like this: (dose: 0.75 mg/kg/injection, schedule: Q01DX Z (ip), vehicle: saline) 120 % of control; (dose: 2.6 mg/kg/injection, schedule: Q01DX Z (ip), vehicle: saline) 194 % of control and 213 % of control; (dose: 2.9 mg/kg/injection, schedule: Q01DX001 (ip), vehicle: saline) 116 % of control; (dose: 4.0 mg/kg/injection, schedule: Q01DX Z (ip), vehicle: saline) 176 % of control; (dose: 4.4 mg/kg/injection, schedule: Q01DX001 (ip), vehicle: saline) 124 % of control; (dose: 6.0 mg/kg/injection, schedule: Q01DX Z (ip), vehicle: saline) 170 % of control. The T/C (dose: 7.0 mg/kg/injection, schedule: Q01DX Z (oral), vehicle: saline) is 103 % of control; the T/C (dose: 14.0 mg/kg/injection, schedule: Q01DX Z (ip), vehicle: saline) is 100 % of control; the T/C (dose: 15.0 mg/kg/injection, schedule: Q01DX Z (oral), vehicle: saline) was 100 % of control; the T/C under setting [7] is 164 % of control; the T/C (dose: 22.0 mg/kg/injection, schedule: Q01DX Z (ip), vehicle: saline) is 102 % of control; the T/C (dose: 30.0 mg/kg/injection, schedule: Q01DX Z (oral), vehicle: saline) was 102 % of control. For the same compound, the T/C (dose: 35.0 mg/kg/injection, schedule: Q01DX Z (ip), vehicle: saline) was 88 % of control; the T/C under setting [8] is 153 % of control and 191 % of control.

Take `ClCCN(CCCl)CCCNc1cc(-c2ccc(Cl)cc2)nc2cc(Cl)ccc12`: the T/C is 101 % of control under setting [9]; 101 % of control under setting [10]; 109 % of control under setting [7]; 104 % of control under setting [8]; 92 % of control under setting [11]; 106 % of control under setting [12].

Consider `O=C1NC2/C=C/CCCCC12` (stereo unspecified), for which the T/C was 95 % of control (dose: 100.0 mg/kg/injection, schedule: Q04DX003 (ip), vehicle: other); 101 % of control (dose: 200.0 mg/kg/injection, schedule: Q04DX003 (ip), vehicle: other); 92 % of control (dose: 400.0 mg/kg/injection, schedule: Q04DX003 (ip), vehicle: other).

In the case of `CC[CH](C)[Hg][c]1cccc2ccccc12` (stereo unspecified), the T/C runs as follows: under setting [13], 96 % of control; under setting [14], 97 % of control; under setting [1], 97 % of control and 100 % of control; (dose: 100.0 mg/kg/injection, schedule: Q04DX003 (ip), vehicle: Klucel (hydroxypropylcellulose) (HPC)) 100 % of control; (dose: 200.0 mg/kg/injection, schedule: Q04DX003 (ip), vehicle: Klucel (hydroxypropylcellulose) (HPC)) 97 % of control; (dose: 400.0 mg/kg/injection, schedule: Q04DX003 (ip), vehicle: Klucel (hydroxypropylcellulose) (HPC)) 96 % of control.

Regarding `N#CCc1ccc(Cl)c(Cl)c1`, the T/C reads like this: under setting [9], 100 % of control; under setting [10], 105 % of control; under setting [7], 95 % of control; under setting [8], 95 % of control; under setting [11], 98 % of control.

Take `CCN(CC)CCNc1ccc(CO)c2oc3ccccc3c(=O)c12`: the T/C (dose: 50.0 mg/kg/injection, schedule: Q01DX009 (ip), vehicle: saline) is 99 % of control; the T/C (dose: 100.0 mg/kg/injection, schedule: Q01DX009 (ip), vehicle: saline) is 96 % of control; the T/C (dose: 200.0 mg/kg/injection, schedule: Q01DX009 (ip), vehicle: saline) is 99 % of control.

In the case of `COc1cc(SSc2ccc(N)c(OC)c2)ccc1N`, the T/C reads like this: under setting [2], 105 % of control; under setting [3], 88 % of control.

For the compound `CC1(C(=O)O)COC(=O)N1` (stereo unspecified), the T/C (dose: 25.0 mg/kg/injection, schedule: Q04DX002 (ip), vehicle: saline) is 96 % of control; the T/C (dose: 50.0 mg/kg/injection, schedule: Q04DX002 (ip), vehicle: saline) was 104 % of control; the T/C (dose: 100.0 mg/kg/injection, schedule: Q04DX002 (ip), vehicle: saline) was 86 % of control.

For `Cc1cccc(Cl)c1NC(=O)CCCl`, the T/C was 103 % of control under setting [15], 104 % of control under setting [16] and 90 % of control under setting [17].

For the compound `Nc1ccc2c(c1)C(=O)c1c(C(=O)O)cccc1-2`, the T/C under setting [2] was 108 % of control and the T/C under setting [3] was 101 % of control.

Regarding `CCOC(=O)c1ccc(NCC2=Nc3c(N)nc(N)nc3NC2)cc1`, the T/C is 92 % of control (dose: 3.0 mg/kg/injection, schedule: Q01DX009 (ip), vehicle: Klucel (hydroxypropylcellulose) (HPC)); 97 % of control (dose: 6.0 mg/kg/injection, schedule: Q01DX009 (ip), vehicle: Klucel (hydroxypropylcellulose) (HPC)); 101 % of control and 108 % of control (dose: 12.0 mg/kg/injection, schedule: Q01DX009 (ip), vehicle: Klucel (hydroxypropylcellulose) (HPC)); 97 % of control under setting [13]; 90 % of control under setting [14]; 89 % of control under setting [1].

Turning to `N#Cc1cc([N+](=O)[O-])c(Cl)c([N+](=O)[O-])c1Cl`, the T/C reads like this: (dose: 3.13 mg/kg/injection, schedule: Q01DX009 (ip), vehicle: saline with Tween-80) 95 % of control; (dose: 6.25 mg/kg/injection, schedule: Q01DX009 (ip), vehicle: saline with Tween-80) 108 % of control; (dose: 6.25 mg/kg/injection, schedule: Q04DX003 (ip), vehicle: saline with Tween-80) 98 % of control; (dose: 12.5 mg/kg/injection, schedule: Q01DX009 (ip), vehicle: saline with Tween-80) 101 % of control; (dose: 12.5 mg/kg/injection, schedule: Q04DX003 (ip), vehicle: saline with Tween-80) 95 % of control.

Turning to `[O-][n+]1ccccc1CCSCCc1cccc[n+]1[O-]`, the T/C is 101 % of control (dose: 100.0 mg/kg/injection, schedule: Q01DX001 (ip), vehicle: saline); 88 % of control under setting [12]; 97 % of control (dose: 400.0 mg/kg/injection, schedule: Q01DX001 (ip), vehicle: saline).

`O=[N+]([O-])c1cc2c(c([N+](=O)[O-])c1)OCOC2`: the T/C (dose: 100.0 mg/kg/injection, schedule: Q04DX003 (ip), vehicle: saline) was 100 % of control; the T/C (dose: 200.0 mg/kg/injection, schedule: Q04DX003 (ip), vehicle: saline) is 97 % of control; the T/C (dose: 400.0 mg/kg/injection, schedule: Q04DX003 (ip), vehicle: saline) is 107 % of control.

For `Oc1ccc(N=Cc2ccc(C=Nc3ccc(O)cc3)cc2)cc1`, the T/C reads like this: under setting [15], 106 % of control; under setting [4], 112 % of control; under setting [16], 100 % of control; under setting [5], 100 % of control; under setting [17], 105 % of control; under setting [6], 100 % of control.
